Data published in patent US20050025705A1, “Thrombosis animal models and their use in drug discovery and development” (priority 2003, published 2005).
Where “and” joins values, the source holds several entries; their conditions need not be identical. Equal values may be shown once.

Columns and labels:
[1] = tested on: FeCl3-induced arterial thrombosis in C57BL/6 mice; assay: FeCl3-induced carotid artery thrombosis in mice, Doppler blood flow (Example 2); type: in vivo; details: for efficacy in blocking thrombus formation: relatively high FeCl3 concentrations, unless an extremely high drug concentration was used
Description: Mice were anesthetized with gas inhalation comprised of 30% oxygen (0.3 liter/min; Airgas East, Inc., Salem, N.H.) and 70% nitrous oxide (0.7 liter/min; Airgas East, Inc., Salem, N.H.). […] Louis, Mo.) to the adventitial surface of the carotid artery immediately proximal to the flow probe for 3 min and then removed. The carotid blood flow was monitored at 1, 5, 10, 20, 30 min or some times up to 60 min. Heparin was purchased from American Pharmaceutical Partners, Inc. (Los Angeles, Calif.); mice were infused with 10, 50, 200 and 1000 IU/kg, i.v. immediately prior to 2.5 or 5% FeCl3 treatment on the carotid artery. […] Aspirin (acetylsalicylic acid) and MRS2179 were purchased from Sigma. […] Data in text and figures are mean±standard errors for the indicated number (N) of animals.

[2] = cited from earlier work
[3] = tested on: tail bleeding time in C57BL/6 mice; assay: Mouse tail bleeding time
Description: Mice were anesthetized as described above and placed on a 37° C. heating pad. About 2-4 mm from the tip of mouse tail (in about 1 mm diameter) was cut with a disposable surgical blade. After transection, the tail was immediately placed into a 50-ml falcon tube filled with 37° C. saline and the bleeding time was recorded up to 30 min. Bleeding time over 30 min was considered as bleeding off scale.
Both thrombosis and bleeding studies were conducted within 2-4 hr after the second day of oral dosing.

[4] = tested on: 5% FeCl3-induced arterial thrombosis in C57BL/6 mice
Description: Adult mice (18-25 g, both male and female) were used for thrombosis study. Following anesthesia by pentobarbital (50 mg/kg, i.p.), an incision of the skin was made directly on top of the right common carotid artery region. The fascia was then blunt dissected and a segment of the […] common carotid artery was exposed. A Transonic flow probe (0.5 VB) was placed on the artery with gel to obtain the baseline flow readings (as time 0) via a Transonic […] Doppler flowmeter. Two pieces of filter paper (1×11⁄2 mm) pre-soaked with 5% FeCl3 solution were placed beneath and above the carotid artery for 3 min to induce thrombosis. The filter papers were removed and rinsed with saline. The blood flow was recorded every 5, 10, 20 and 30 min of FeCl3 treatment. […] Clopidogrel was administrated for two days. […] Data are illustrated as mean±standard errors using indicated number (N) of animals. Statistical comparisons were made by analysis of variance (ANOVA; Fisher's protected least squares difference) and values were considered to be significant at p<0.05.

In the case of `CSCCNc1nc(SCCC(F)(F)F)nc2c1ncn2[C@@H]1O[C@H](COP(=O)(O)OP(=O)(O)C(Cl)(Cl)P(=O)(O)O)[C@@H](O)[C@H]1O` [cangrelor], the “efficacy in 2.5% versus 5% FeCl3-induced thrombosis” value ([1]; 2.5% and 5% FeCl3) is reported as “differential efficacy” and the “efficacy in blocking thrombus formation” value [1] is reported as “failed to show efficacy”.

In the case of heparin, the clotting activity ([2]; at concentrations greater than 4 ug/ml) is listed as “not detectable”, the “activated partial thromboplastin time (aPTT) assay times” value ([2]; at therapeutic range 1 to less than 3 ug/ml plasma) is listed as 35 to 100 s and the vascular patency ([1]; 2.5% FeCl3-induced thrombosis, 200 IU/kg i.v.) is listed as “maintained”. The “dose required to inhibit thrombosis” value ([1]; 5% FeCl3-induced thrombosis, i.v.) was 1000 IU/kg and the “efficacy in blocking thrombus formation” value [1] was “failed to show efficacy”.

With `COC(=O)[C@H](c1ccccc1Cl)N1CCc2sccc2C1` [clopidogrel] the “prolongation in bleeding time” value ([3]; 1 mg/kg p.o.) was “no prolongation”, the “animals bleeding off scale (over 30 min)” value ([3]; 10 mg/kg p.o.) was 75% and the “increase in bleeding time” value ([3]; 10 mg/kg p.o., p<0.01, n=8) was 11 fold and 10.9 fold. For the same compound, the “animals bleeding off scale (over 30 min)” value ([3]; 30 mg/kg (data not shown)) was 100%, the protection from thrombosis ([4]; 10 mg/kg) was “failed to protect” and the “animals that retained vascular patency” value ([4]; 100 mg/kg p.o.) was 6 out of 9. The “AUC of the relative Doppler blood flow, over controls” value ([4]; 100 mg/kg p.o., p<0.01) was 3.7 fold, the antithrombotic effect ([4]; clinically relevant dose 1 mg/kg p.o.) was “No antithrombotic effect” and the “dose needed for antithrombotic effect” value ([4]; p.o.) was > 30 mg/kg. For the same compound, the vascular patency ([1]; 2.5% FeCl3-induced thrombosis, 1 mg/kg p.o.) was “maintained in some”, the “vascular patency (animals in which maintained)” value ([1]; 2.5% FeCl3-induced thrombosis, 3 mg/kg p.o.) was “all” and the “dose required to show efficacy” value ([1]; 5% FeCl3-induced thrombosis, p.o.) was 100 mg/kg. For the same compound, the “efficacy in blocking thrombus formation” value [1] was “failed to show efficacy”.

For `CNc1ncnc2c1ncn2[C@H]1C[C@H](OP(=O)(O)O)[C@@H](COP(=O)(O)O)O1` [MRS2179], the effective dose ([1]; 2.5% FeCl3-induced thrombosis, i.v.) was 150 mg/kg, the “potency in blocking FeCl3-induced thrombosis” value ([1]; 2.5% FeCl3, compared with P2Y12 antagonists) was “less potent” and the “efficacy in blocking thrombus formation” value [1] was “failed to show efficacy”.

In the case of `CC(=O)Oc1ccccc1C(=O)O` [aspirin, acetylsalicylic acid], the “effect in blocking thrombosis” value ([1]; 2.5% FeCl3-induced thrombosis, aspirin 10 and 30 mg/kg i.p.) is reported as “Very little effect” and the “efficacy in blocking thrombus formation” value [1] is reported as “failed to show efficacy”.
